The values below come from US20130053381A1, “2,4-DIOXO-1,4-DIHYDRO-2H-QUINAZOLIN-3-YL-SULFONAMIDE DERIVATIVES” (NOVARTIS AG, priority 2010, published 2013).

One assay relates to OF1 mice. The assay is described as follows: Maximal electroshock test (MES Test). The format is in vivo. To be noted: Mus musculus, po; 50 mg/kg, p.o., pre-treatment time −0.5 h (footnote d); read-out: %-Protection. The procedure, abridged:
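Compound given p.o. (typically 50 mg/kg) 1 h before tonic-clonic convulsions were induced via temporal electrodes (50 Hz, 18 mA, 0.2 s); seizure lasting 3 s or less counted as protection. Read-out is percent protected of five mice per condition; ED50 calculated, blood exposure sampled after shock.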
In general terms: In the maximal electroshock model the usual endpoint is tonic extension of the hind limbs.
As for `CCCC(=O)N(n1c(=O)[nH]c2cc(C(F)(F)F)c([C@H]3CCCO3)cc2c1=O)S(C)(=O)=O` [Example 10.03], the responders at 50 mg/kg worked out at 60%.

Staying with this assay, now noted: Mus musculus, po; 50 mg/kg, p.o., pre-treatment time −1 h; read-out: %-Protection.
Consider `CS(=O)(=O)N(C(=O)C1CCCC1)n1c(=O)[nH]c2cc(C(F)(F)F)c(-n3ccnc3)cc2c1=O` [Example 4.07], for which the responders at 50 mg/kg came out at 40%. As to `CCCCOC(=O)N(n1c(=O)[nH]c2cc(CC)c(-c3ccnn3C)cc2c1=O)S(C)(=O)=O` [Example 2.09, Methanesulfonyl-[7-ethyl-6-(2-methyl-2H-pyrazol-3-yl)-2,4-dioxo-1,4-dihydro-2H-quinazolin-3-yl]-carbamic acid butyl ester], the responders at 50 mg/kg worked out at 40%. Turning to `CC(C)COC(=O)N(n1c(=O)[nH]c2cc(C(F)(F)F)c(-c3ccnn3C(C)C)cc2c1=O)S(C)(=O)=O` [Example 5.09, [6-(2-Isopropyl-2H-pyrazol-3-yl)-2,4-dioxo-7-trifluoromethyl-1,4-dihydro-2H-quinazolin-3-yl]-methanesulfonyl-carbamic acid isobutyl ester], the responders at 50 mg/kg was 40%. On to `CCCOC(=O)N(n1c(=O)[nH]c2cc(C(F)F)c(-c3ccnn3C(C)C)cc2c1=O)S(C)(=O)=O` [Example 6.04, [7-Difluoromethyl-6-(2-isopropyl-2H-pyrazol-3-yl)-2,4-dioxo-1,4-dihydro-2H-quinazolin-3-yl]-methanesulfonyl-carbamic acid propyl ester], for which the responders at 50 mg/kg was found to be 20%. Consider `CCOC(=O)N(n1c(=O)[nH]c2cc(C(F)(F)F)c(-n3cccc3)cc2c1=O)S(C)(=O)=O` [Example 8.05, (2,4-Dioxo-6-pyrrol-1-yl-7-trifluoromethyl-1,4-dihydro-2H-quinazolin-3-yl)-methanesulfonyl-carbamic acid ethyl ester], for which the responders at 50 mg/kg was found to be 60%. Turning to `CCCC(=O)N(n1c(=O)[nH]c2cc(C(F)(F)F)c([C@H]3CCCO3)cc2c1=O)S(C)(=O)=O` [Example 10.03], the responders at 50 mg/kg stood at 100%. Regarding `CCCCCC(=O)N(n1c(=O)[nH]c2cc(C(F)(F)F)c(-n3ccnc3)cc2c1=O)S(C)(=O)=O` [Example 4.08, N-Hexanoyl-N-(6-imidazol-1-yl-2,4-dioxo-7-trifluoromethyl-1,4-dihydro-2H-quinazolin-3-yl)-methanesulfonamide], the responders at 50 mg/kg turned out to be 20%. `CC(C)CC(=O)N(n1c(=O)[nH]c2cc(C(F)(F)F)c(-n3ccnc3)cc2c1=O)S(C)(=O)=O` [Example 4.06, N-(6-Imidazol-1-yl-2,4-dioxo-7-trifluoromethyl-1,4-dihydro-2H-quinazolin-3-yl)-N-(3-methyl-butyryl)-methanesulfonamide]: the responders at 50 mg/kg was 20%.

With `CC(C)c1cc2[nH]c(=O)n(N(C(=O)CCCN3CCOCC3)S(C)(=O)=O)c(=O)c2cc1-c1ccnn1C` [Example 3.37, N-[7-Isopropyl-6-(2-methyl-2H-pyrazol-3-yl)-2,4-dioxo-1,4-dihydro-2H-quinazolin-3-yl]-N-(4-morpholin-4-yl-butyryl)-methanesulfonamide], the responders at 50 mg/kg was 100%. In the case of `CCOC(=O)CCC(=O)N(n1c(=O)[nH]c2cc(C(F)(F)F)c([C@H]3CCCO3)cc2c1=O)S(C)(=O)=O` [Example 10.10], the responders at 50 mg/kg turned out to be 20%. For `COCCOC(=O)N(n1c(=O)[nH]c2cc(C(F)(F)F)c([C@H]3CCCO3)cc2c1=O)S(C)(=O)=O` [Example 10.07, Methanesulfonyl-N—((R)-2,4-dioxo-6-tetrahydro-furan-2-yl-7-trifluoromethyl-1,4-dihydro-2H-quinazolin-3-yl)-carbamic acid 2-methoxy-ethyl ester], the responders at 50 mg/kg turned out to be 60%. In the case of `CCCC(=O)N(n1c(=O)[nH]c2cc(C(F)(F)F)c(-c3ccnn3C)cc2c1=O)S(C)(=O)=O` [Example 1.03, N-Butyryl-N-[6-(2-methyl-2H-pyrazol-3-yl)-2,4-dioxo-7-trifluoromethyl-1,4-dihydro-2H-quinazolin-3-yl]-methanesulfonamide], the responders at 50 mg/kg came to 100%.

Consider `CC(=O)n1c(=O)n(N(C(=O)OCc2ccccc2)S(C)(=O)=O)c(=O)c2cc(-c3ccnn3C)c(C(C)C)cc21` [Example 3.27, [1-Acetyl-7-isopropyl-6-(2-methyl-2H-pyrazol-3-yl)-2,4-dioxo-1,4-dihydro-2H-quinazolin-3-yl]-methanesulfonyl-carbamic acid benzyl ester], for which the responders at 50 mg/kg turned out to be 100%. The same measure, in the same setting: next, `CCC(OC)c1cc2c(=O)n(N(C(=O)OC(C)C)S(C)(=O)=O)c(=O)[nH]c2cc1C(F)(F)F` (stereo not drawn) [Example 11.14, Methanesulfonyl-[6-(1-methoxy-propyl)-2,4-dioxo-7-trifluoromethyl-1,4-dihydro-2H-quinazolin-3-yl]-carbamic acid isopropyl ester]: 60%.

In the case of `CCC(=O)N(n1c(=O)[nH]c2cc(CC)c(-c3ccnn3C)cc2c1=O)S(C)(=O)=O` [Example 2.10, N-[7-Ethyl-6-(2-methyl-2H-pyrazol-3-yl)-2,4-dioxo-1,4-dihydro-2H-quinazolin-3-yl]-N-propionyl-methanesulfonamide], the responders at 50 mg/kg came to 100%. Regarding `CCOC(=O)N(n1c(=O)[nH]c2cc(C(F)(F)F)c(C(CC)OC)cc2c1=O)S(C)(=O)=O` (stereo not drawn) [Example 11.03, Methanesulfonyl-[6-(1-methoxy-propyl)-2,4-dioxo-7-trifluoromethyl-1,4-dihydro-2H-quinazolin-3-yl]-carbamic acid ethyl ester], the responders at 50 mg/kg was found to be 80%.

Staying with this assay, now noted: Mus musculus, po; 50 mg/kg, p.o., pre-treatment time −2 h (footnote a); read-out: %-Protection.
Consider `CCCCCC(=O)N(n1c(=O)[nH]c2cc(C(F)(F)F)c(-n3cnnc3)cc2c1=O)S(C)(=O)=O` [Example 9.02, N-(2,4-Dioxo-6-[1,2,4]triazol-4-yl-7-trifluoromethyl-1,4-dihydro-2H-quinazolin-3-yl)-N-hexanoyl-methanesulfonamide], for which the responders at 50 mg/kg is 20%.

Staying with this assay, now noted: Mus musculus, po; Dose: 15 mg/kg, p.o. (footnote c), pre-treatment time −1 h; read-out: %-Protection.
With `COCCOC(=O)N(n1c(=O)[nH]c2cc(C(C)C)c(-c3ccnn3C)cc2c1=O)S(C)(=O)=O` [Example 3.02, [7-Isopropyl-6-(2-methyl-2H-pyrazol-3-yl)-2,4-dioxo-1,4-dihydro-2H-quinazolin-3-yl]-methanesulfonyl-carbamic acid 2-methoxy-ethyl ester], the responders at 15 mg/kg was 100%.

The same assay, now with this note: Mus musculus, po; Dose: 25 mg/kg, p.o. (footnote b), pre-treatment time −1 h; read-out: %-Protection.
Turning to `CCCOC(=O)N(n1c(=O)[nH]c2cc(C(F)F)c(-c3ccnn3C(C)C)cc2c1=O)S(C)(=O)=O` [Example 6.04, [7-Difluoromethyl-6-(2-isopropyl-2H-pyrazol-3-yl)-2,4-dioxo-1,4-dihydro-2H-quinazolin-3-yl]-methanesulfonyl-carbamic acid propyl ester], the responders at 25 mg/kg turned out to be 0%. Still for that read-out and setting: the same measure for `CCCCCC(=O)N(n1c(=O)[nH]c2cc(CC)c(-c3ccnn3C)cc2c1=O)S(C)(=O)=O` [Example 2.03, N-[7-Ethyl-6-(2-methyl-2H-pyrazol-3-yl)-2,4-dioxo-1,4-dihydro-2H-quinazolin-3-yl]-N-hexanoyl-methanesulfonamide]: 100%.

The same assay, now with this note: Mus musculus; dose of up to 50 mg/kg, p.o., 1 hour prior to induction of convulsions; read-out: %-Protection.
Turning to `CCc1cc2[nH]c(=O)n(N(C(=O)C(C)C)S(C)(=O)=O)c(=O)c2cc1-c1ccnn1CC` [N-[7-Ethyl-6-(2-ethyl-2H-pyrazol-3-yl)-2,4-dioxo-1,4-dihydro-2H-quinazolin-3-yl]-N-isobutyryl-methanesulfonamide], the responders at 50 mg/kg came out at 0%. Consider `CC(C)COC(=O)N(n1c(=O)[nH]c2cc(C(F)F)c(-c3ccnn3C(C)C)cc2c1=O)S(C)(=O)=O` [[7-Difluoromethyl-6-(2-isopropyl-2H-pyrazol-3-yl)-2,4-dioxo-1,4-dihydro-2H-quinazolin-3-yl]-methanesulfonyl-carbamic acid isobutyl ester], for which the responders at 50 mg/kg came out at 0%. On to `CCCCC(=O)N(n1c(=O)[nH]c2cc(C(F)(F)F)c(-c3ccnn3CC)cc2c1=O)S(C)(=O)=O` [N-[6-(2-Ethyl-2H-pyrazol-3-yl)-2,4-dioxo-7-trifluoromethyl-1,4-dihydro-2H-quinazolin-3-yl]-N-pentanoyl-methanesulfonamide], for which the responders at 50 mg/kg was 0%.
